Reference: US10696707B2, “Polyene macrolide derivative” (Shionogi & Co., Ltd., priority 2014, dated 2020)

Tested on: red blood cells (5% RBC suspension)
Test: Test Example 2-2: in vitro hemolytic activity test (upper limit 200 μmol/L)
Assay type: cell-based
Settings: Test Example 2-2; hemolysis method 200 (upper concentration 200 μmol/L); 5% RBC suspension, 37° C., one hour; read-out: hemolysis IC50
Description: Nephrotoxic potentials of the compounds of the present invention whose X is —N(R^F)—CO—X^1 and X^1 is the group represented by formula (III) and T is —N(R^a5)— were investigated by in vitro hemolytic activity test under the condition that the upper limit was 200 μmol/L as the required concentration to 50% of hemolysis (IC50).
Defibrinated sterile blood was centrifuged at 700×g for 3 minutes and, and the supernatant was removed for 100% of red blood cells. After the cleaning with physiological saline, the washed blood cells was suspended in the medium (Earle's balanced salt sodium, bicarbonate, 0.1 g/L L-glutamine without phenol red), and was diluted by 5% (5% RBC suspension).
The washed blood was diluted by 5% in water for injection (solution of complete hemolysis), and was used as the indication of optical density for complete hemolysis.
The compounds of the present invention solution in DMSO (several and doubling dilutions starting from 10 mmol/L), DMSO as the negative control, and Amphotericin B as the positive control were used, and each 5 μL of these was added in to a well of V-form 96 well type microplate. Finally, the maximum concentration of the compounds of the present invention solution in DMSO was 200 μmol/L by adding 245 μL of the medium or 5% RBC suspension into the well.
Two hundred fifty μL of the solution of complete hemolysis was added into another well and the microplate was incubated at 37° C. in 5% of CO2 concentration for an hour.
After the incubation, each 100 μL of supernatants in wells was collected by centrifugation of the microplate at 300×g for 5 minutes and was located on a well of flat-form 96 well type microplate. An absorbance of each supernatant was measured at wavelength of 540 nm.
Percent hemolysis was calculated by using the followed equation. The required concentration to 50% of hemolysis (IC50) was calculated based on the percent hemolysis. […] Hemolysis (%)=(CR−VM)×100÷(VL−VR) Where:
CR: Absorbance of 5% RBC suspension incubated with the compounds of the present invention solution in DMSO
VM: Absorbance of medium incubated with the compounds of the present invention solution in DMSO
VL: Absorbance of solution of complete hemolysis
VR: Absorbance of 5% RBC suspension incubated with DMSO
The “>200” in the table means above IC50 value exceeded the upper concentration 200 μmol/L.

Row | Compound | IC50
1 | C[C@@H]1[C@H](O)[C@@H](C)/C=C/C=C/C=C/C=C/C=C/C=C/C=C/[C@H](O[C@@H]2O[C@H](C)[C@@H](O)[C@H](N)[C@@H]2O)C[C@@H]2O[C@](O)(C[C@@H](O)C[C@@H](O)[C@H](O)CC[C@@H](O)C[C@@H](O)CC(=O)O[C@H]1C)C[C@H](O)[C@H]2NC(=O)NNC(=O)c1ccc(N2CCOCC2)nc1 [I-194] | > 200 µM
2 | CNC(=O)NNC(=O)N[C@H]1[C@@H]2C[C@@H](O[C@@H]3O[C@H](C)[C@@H](O)[C@H](N)[C@@H]3O)/C=C/C=C/C=C/C=C/C=C/C=C/C=C/[C@H](C)[C@@H](O)[C@@H](C)[C@H](C)OC(=O)C[C@H](O)C[C@H](O)CC[C@@H](O)[C@H](O)C[C@H](O)C[C@](O)(C[C@@H]1O)O2 [I-228] | > 200 µM
3 | CCCC(=O)NNC(=O)N[C@H]1[C@@H]2C[C@@H](O[C@@H]3O[C@H](C)[C@@H](O)[C@H](N)[C@@H]3O)/C=C/C=C/C=C/C=C/C=C/C=C/C=C/[C@H](C)[C@@H](O)[C@@H](C)[C@H](C)OC(=O)C[C@H](O)C[C@H](O)CC[C@@H](O)[C@H](O)C[C@H](O)C[C@](O)(C[C@@H]1O)O2 [I-209] | > 200 µM
4 | C[C@@H]1[C@H](O)[C@@H](C)/C=C/C=C/C=C/C=C/C=C/C=C/C=C/[C@H](O[C@@H]2O[C@H](C)[C@@H](O)[C@H](N)[C@@H]2O)C[C@@H]2O[C@](O)(C[C@@H](O)C[C@@H](O)[C@H](O)CC[C@@H](O)C[C@@H](O)CC(=O)O[C@H]1C)C[C@H](O)[C@H]2NC(=O)NNC(=S)Nc1ccccc1 [I-216] | > 200 µM
5 | C[C@@H]1[C@H](O)[C@@H](C)/C=C/C=C/C=C/C=C/C=C/C=C/C=C/[C@H](O[C@@H]2O[C@H](C)[C@@H](O)[C@H](N)[C@@H]2O)C[C@@H]2O[C@](O)(C[C@@H](O)C[C@@H](O)[C@H](O)CC[C@@H](O)C[C@@H](O)CC(=O)O[C@H]1C)C[C@H](O)[C@H]2NC(=O)NNC(=O)C1CCC(O)CC1 (stereo partly shown) [I-239] | > 200 µM
6 | C[C@@H]1[C@H](O)[C@@H](C)/C=C/C=C/C=C/C=C/C=C/C=C/C=C/[C@H](O[C@@H]2O[C@H](C)[C@@H](O)[C@H](N)[C@@H]2O)C[C@@H]2O[C@](O)(C[C@@H](O)C[C@@H](O)[C@H](O)CC[C@@H](O)C[C@@H](O)CC(=O)O[C@H]1C)C[C@H](O)[C@H]2NC(=O)NNC(=O)CO [I-243] | > 200 µM
7 | C[C@@H]1[C@H](O)[C@@H](C)/C=C/C=C/C=C/C=C/C=C/C=C/C=C/[C@H](O[C@@H]2O[C@H](C)[C@@H](O)[C@H](N)[C@@H]2O)C[C@@H]2O[C@](O)(C[C@@H](O)C[C@@H](O)[C@H](O)CC[C@@H](O)C[C@@H](O)CC(=O)O[C@H]1C)C[C@H](O)[C@H]2NC(=O)NNC(=O)C1(C(N)=O)CC1 [I-256] | > 200 µM
8 | C[C@@H]1[C@H](O)[C@@H](C)/C=C/C=C/C=C/C=C/C=C/C=C/C=C/[C@H](O[C@@H]2O[C@H](C)[C@@H](O)[C@H](N)[C@@H]2O)C[C@@H]2O[C@](O)(C[C@@H](O)C[C@@H](O)[C@H](O)CC[C@@H](O)C[C@@H](O)CC(=O)O[C@H]1C)C[C@H](O)[C@H]2NC(=O)NNC(=O)c1ccccn1 [I-44] | > 200 µM
9 | C[C@@H]1[C@H](O)[C@@H](C)/C=C/C=C/C=C/C=C/C=C/C=C/C=C/[C@H](O[C@@H]2O[C@H](C)[C@@H](O)[C@H](N)[C@@H]2O)C[C@@H]2O[C@](O)(C[C@@H](O)C[C@@H](O)[C@H](O)CC[C@@H](O)C[C@@H](O)CC(=O)O[C@H]1C)C[C@H](O)[C@H]2NC(=O)NNC(=O)Nc1ccccn1 [I-221] | > 200 µM
10 | C[C@@H]1[C@H](O)[C@@H](C)/C=C/C=C/C=C/C=C/C=C/C=C/C=C/[C@H](O[C@@H]2O[C@H](C)[C@@H](O)[C@H](N)[C@@H]2O)C[C@@H]2O[C@](O)(C[C@@H](O)C[C@@H](O)[C@H](O)CC[C@@H](O)C[C@@H](O)CC(=O)O[C@H]1C)C[C@H](O)[C@H]2NC(=O)NNC(=O)c1cccnc1N [I-198] | > 200 µM
